± gives the expanded uncertainty stated by the source.
Details: for kinematic viscosity: Liquid, Scattered Light Surfacing

CCF [fluoroethane]
Details | surface tension liquid-gas [mN/m]
244.13 K, Capillary rise | 16.72 ± 0.5
246.15 K, Capillary rise | 16.42 ± 0.5
248.13 K, Capillary rise | 16.18 ± 0.49
250.05 K, Capillary rise | 15.87 ± 0.48
252.1 K, Capillary rise | 15.59 ± 0.47
254.15 K, Capillary rise | 15.26 ± 0.46
256.05 K, Capillary rise | 14.97 ± 0.45
258.13 K, Capillary rise | 14.69 ± 0.44
260.05 K, Capillary rise | 14.38 ± 0.43
262.08 K, Capillary rise | 14.13 ± 0.43
264.13 K, Capillary rise | 13.85 ± 0.42
266.1 K, Capillary rise | 13.58 ± 0.41
268.08 K, Capillary rise | 13.27 ± 0.4
270.1 K, Capillary rise | 13 ± 0.39
272.04 K, Capillary rise | 12.69 ± 0.38
274.1 K, Capillary rise | 12.4 ± 0.38
276.03 K, Capillary rise | 12.08 ± 0.37
278.14 K, Capillary rise | 11.81 ± 0.36
280.14 K, Capillary rise | 11.54 ± 0.35
282.14 K, Capillary rise | 11.25 ± 0.34
284.14 K, Capillary rise | 10.95 ± 0.33
286.12 K, Capillary rise | 10.67 ± 0.32
288.13 K, Capillary rise | 10.38 ± 0.32
290.12 K, Capillary rise | 10.1 ± 0.31
292.13 K, Capillary rise | 9.82 ± 0.3
293.43 K, Surface Light Scattering | 9.46 ± 0.28
294.12 K, Capillary rise | 9.53 ± 0.29
296.12 K, Capillary rise | 9.24 ± 0.28
298.1 K, Capillary rise | 8.96 ± 0.27
300.11 K, Capillary rise | 8.66 ± 0.26
302.17 K, Capillary rise | 8.37 ± 0.26
303.14 K, Surface Light Scattering | 8.16 ± 0.25
304.11 K, Capillary rise | 8.08 ± 0.25
305.13 K, Capillary rise | 7.95 ± 0.24
306.12 K, Capillary rise | 7.83 ± 0.24
308.12 K, Capillary rise | 7.54 ± 0.23
310.18 K, Capillary rise | 7.27 ± 0.22
312.17 K, Capillary rise | 7 ± 0.21
313.11 K, Surface Light Scattering | 6.78 ± 0.2
314.18 K, Capillary rise | 6.71 ± 0.21
316.17 K, Capillary rise | 6.44 ± 0.2
318.16 K, Capillary rise | 6.17 ± 0.19
320.17 K, Capillary rise | 5.86 ± 0.18
322.18 K, Capillary rise | 5.61 ± 0.17
323.14 K, Surface Light Scattering | 5.46 ± 0.16
324.18 K, Capillary rise | 5.39 ± 0.17
326.17 K, Capillary rise | 5.08 ± 0.16
328.16 K, Capillary rise | 4.84 ± 0.15
330.17 K, Capillary rise | 4.6 ± 0.14
332.17 K, Capillary rise | 4.33 ± 0.14
333.15 K, Surface Light Scattering | 4.2 ± 0.13
334.16 K, Capillary rise | 4.1 ± 0.13
343.14 K, Surface Light Scattering | 3 ± 0.09
353.12 K, Surface Light Scattering | 1.89 ± 0.06
363.11 K, Surface Light Scattering | 0.92 ± 0.03
373.09 K, Surface Light Scattering | 0.13 ± 0.01

Details | kinematic viscosity [m2/s]
293.43 K | 1.81e-07 ± 2.3e-08
303.14 K | 1.66e-07 ± 2.2e-08
313.11 K | 1.52e-07 ± 2e-08
323.14 K | 1.42e-07 ± 1.9e-08
333.15 K | 1.32e-07 ± 1.8e-08
343.14 K | 1.22e-07 ± 1.7e-08
353.12 K | 1.12e-07 ± 1.5e-08
363.11 K | 1.03e-07 ± 1.5e-08
373.09 K | 8.97e-08 ± 1.3e-08

Source: the NIST ThermoML archive (doi:10.1016/j.fluid.2015.07.010)
